Test results taken from ChEMBL document CHEMBL3885881, “DrugMatrix”.

Species: Rattus norvegicus
Experiment: DrugMatrix - Regimen: Daily Repeat
Assay type: toxicity, organism-based, Sprague-Dawley
Set-up: regimen Daily Repeat, gender Male, age 6-8 weeks
Details: in vivo, po, 47 mg/kg, route oral GAVAGE, dose level Low, […]; for ABSOLUTE BASOPHIL / ABSOLUTE EOSINOPHIL / ABSOLUTE LYMPHOCYTE / ABSOLUTE MONOCYTE / ABSOLUTE SEGMENTED NEUTROPHIL / BASOPHIL / EOSINOPHIL / ERYTHROCYTE COUNT / HEMATOCRIT / HEMOGLOBIN / LEUKOCYTE COUNT / LYMPHOCYTE / MEAN CORPUSCULAR HEMOGLOBIN / MEAN CORPUSCULAR HEMOGLOBIN CONCENTRATION / MEAN CORPUSCULAR VOLUME / MONOCYTE / NEUTROPHIL / NUCLEATED RED BLOOD CELLS / PLATELET COUNT: tissue Blood; for ALANINE AMINOTRANSFERASE / ALBUMIN / ALKALINE PHOSPHATASE / ASPARTATE AMINOTRANSFERASE / BLOOD UREA NITROGEN / CARBON DIOXIDE / CHLORIDE / CHOLESTEROL / CREATINE PHOSPHOKINASE / CREATININE / GLUCOSE / LACTATE DEHYDROGENASE / LIPASE / PHOSPHORUS / POTASSIUM / SODIUM / TOTAL BILIRUBIN / TOTAL PROTEIN / URIC ACID: tissue Plasma

Compound: Cc1cn([C@H]2C[C@H](N=[N+]=[N-])[C@@H](CO)O2)c(=O)[nH]c1=O [ZIDOVUDINE]
- ABSOLUTE BASOPHIL (72 h, time 3 day): 0 CELLS/uL
- ABSOLUTE EOSINOPHIL (72 h, time 3 day): 0 CELLS/uL
- ABSOLUTE LYMPHOCYTE (72 h, time 3 day): 11829.67 CELLS/uL
- ABSOLUTE MONOCYTE (72 h, time 3 day): 82 CELLS/uL
- ABSOLUTE SEGMENTED NEUTROPHIL (72 h, time 3 day): 955 CELLS/uL
- BASOPHIL (72 h, time 3 day): 0%
- EOSINOPHIL (72 h, time 3 day): 0%
- ERYTHROCYTE COUNT (72 h, time 3 day): 5.26 x10E6/uL
- HEMATOCRIT (72 h, time 3 day): 33.23%
- HEMOGLOBIN (72 h, time 3 day): 13.43 G/DL
- LEUKOCYTE COUNT (72 h, time 3 day): 12.87 x10E3/uL
- LYMPHOCYTE (72 h, time 3 day): 92%
- MEAN CORPUSCULAR HEMOGLOBIN (72 h, time 3 day): 25.67 pg
- MEAN CORPUSCULAR HEMOGLOBIN CONCENTRATION (72 h, time 3 day): 40.47 G/DL
- MEAN CORPUSCULAR VOLUME (72 h, time 3 day): 63.37 fL
- MONOCYTE (72 h, time 3 day): 0.67%
- NEUTROPHIL (72 h, time 3 day): 7.33%
- NUCLEATED RED BLOOD CELLS (72 h, time 3 day): 0 /100WBC
- PLATELET COUNT (72 h, time 3 day): 1228 x10E3/uL
- ALANINE AMINOTRANSFERASE (72 h, time 3 day): 73.67 u/L
- ALBUMIN (72 h, time 3 day): 4.1 G/DL
- ALKALINE PHOSPHATASE (72 h, time 3 day): 470 u/L
- ASPARTATE AMINOTRANSFERASE (72 h, time 3 day): 86 u/L
- BLOOD UREA NITROGEN (72 h, time 3 day): 12 mg/dL
- CARBON DIOXIDE (72 h, time 3 day): 32.67 mmol/L
- CHLORIDE (72 h, time 3 day): 102.33 MEQ/L
- CHOLESTEROL (72 h, time 3 day): 68 mg/dL
- CREATINE PHOSPHOKINASE (72 h, time 3 day): 377 u/L
- CREATININE (72 h, time 3 day): 0.14 mg/dL
- GLUCOSE (72 h, time 3 day): 156.33 mg/dL
- LACTATE DEHYDROGENASE (72 h, time 3 day): 235.67 u/L
- LIPASE (72 h, time 3 day): 11.67 u/L
- PHOSPHORUS (72 h, time 3 day): 10.87 mg/dL
- POTASSIUM (72 h, time 3 day): 6.46 MEQ/L
- SODIUM (72 h, time 3 day): 141.6 MEQ/L
- TOTAL BILIRUBIN (72 h, time 3 day): 0.17 mg/dL
- TOTAL PROTEIN (72 h, time 3 day): 5.57 G/DL
- URIC ACID (72 h, time 3 day): 1.57 mg/dL
- ABSOLUTE BASOPHIL (120 h, time 5 day): 0 CELLS/uL
- ABSOLUTE EOSINOPHIL (120 h, time 5 day): 0 CELLS/uL
- ABSOLUTE LYMPHOCYTE (120 h, time 5 day): 15346 CELLS/uL
- ABSOLUTE MONOCYTE (120 h, time 5 day): 401.67 CELLS/uL
- ABSOLUTE SEGMENTED NEUTROPHIL (120 h, time 5 day): 2019 CELLS/uL
- BASOPHIL (120 h, time 5 day): 0%
- EOSINOPHIL (120 h, time 5 day): 0%
- ERYTHROCYTE COUNT (120 h, time 5 day): 5.55 x10E6/uL
- HEMATOCRIT (120 h, time 5 day): 35.13%
- HEMOGLOBIN (120 h, time 5 day): 14.03 G/DL
- LEUKOCYTE COUNT (120 h, time 5 day): 17.77 x10E3/uL
- LYMPHOCYTE (120 h, time 5 day): 86%
- MEAN CORPUSCULAR HEMOGLOBIN (120 h, time 5 day): 25.3 pg
- MEAN CORPUSCULAR HEMOGLOBIN CONCENTRATION (120 h, time 5 day): 39.97 G/DL
- MEAN CORPUSCULAR VOLUME (120 h, time 5 day): 63.37 fL
- MONOCYTE (120 h, time 5 day): 2.33%
- NEUTROPHIL (120 h, time 5 day): 11.67%
- NUCLEATED RED BLOOD CELLS (120 h, time 5 day): 0 /100WBC
- PLATELET COUNT (120 h, time 5 day): 1138.33 x10E3/uL
- ALANINE AMINOTRANSFERASE (120 h, time 5 day): 62 u/L
- ALBUMIN (120 h, time 5 day): 4.3 G/DL
- ALKALINE PHOSPHATASE (120 h, time 5 day): 450.33 u/L
- ASPARTATE AMINOTRANSFERASE (120 h, time 5 day): 81.67 u/L
- BLOOD UREA NITROGEN (120 h, time 5 day): 12.33 mg/dL
- CARBON DIOXIDE (120 h, time 5 day): 30.67 mmol/L
- CHLORIDE (120 h, time 5 day): 101 MEQ/L
- CHOLESTEROL (120 h, time 5 day): 72.67 mg/dL
- CREATINE PHOSPHOKINASE (120 h, time 5 day): 317 u/L
- CREATININE (120 h, time 5 day): 0.25 mg/dL
- GLUCOSE (120 h, time 5 day): 162.33 mg/dL
- LACTATE DEHYDROGENASE (120 h, time 5 day): 138 u/L
- LIPASE (120 h, time 5 day): 11 u/L
- PHOSPHORUS (120 h, time 5 day): 11.9 mg/dL
- POTASSIUM (120 h, time 5 day): 6.72 MEQ/L
- SODIUM (120 h, time 5 day): 143.47 MEQ/L
- TOTAL BILIRUBIN (120 h, time 5 day): 0.2 mg/dL
- TOTAL PROTEIN (120 h, time 5 day): 5.87 G/DL
- URIC ACID (120 h, time 5 day): 1.9 mg/dL
